Laboratory results from patent US20180111893A1, “POLYCATIONIC AMPHIPHILES AND POLYMERS THEREOF AS ANTIMICROBIAL AGENTS AND METHODS USING SAME” (Temple University-Of The Commonwealth System of Higher …, priority 2015, published 2018).

Key:
[1] = system: two MRSA strains-USA300-0114 and ATCC33591; experiment: MIC against MRSA strains compared to MSSA; type: cell-based, Staphylococcus aureus; conditions: natural product-derived QACs; for susceptibility to QAC/MRSA resistance: MSSA vs MRSA, in words
Protocol: (§1) Compounds were serially diluted two-fold from a 10% DMSO/aqueous stock solution to yield twelve test concentrations. Overnight S. aureus, E. faecalis, E. coli, P. aeruginosa, CA-MRSA, and HA-MRSA cultures diluted to ca. 10^6 cfu/mL in Mueller-Hinton media and 100 μL were inoculated into each well of a U-bottom 96-well plate (BD Biosciences, BD351177) containing 100 μL of compound solution. Plates were incubated statically at 37° C. for 72 hours upon which time wells were evaluated visually for bacterial growth. The MIC was determined as the lowest concentration of compound resulting in no bacterial growth visible to the naked eye, based on the majority of three independent experiments. Positive and negative DMSO/aqueous solution and media controls were conducted for each trial. See Peng et al., 2011, Chem. Comm. 47:4896-4898.
MIC values against Gram-positive Staphylococcus aureus (methicillin-susceptible Staphyloccocus aureus (MSSA) and two MRSA strains-USA300-0114 and ATCC33591) and Enterococcus faecalis and Gram-negative Escherichia coli and P. aeruginosa were determined according to standard, and results appear in Table 4.

[2] = system: red blood cells; type: cell-based, sheep
Protocol: To date, synthesized compounds have been evaluated against planktonic bacteria (E. coli, S. aureus, P. aeruginosa, E. facaelis) and bacterial biofilms (E. facaelis, S. aureus, MRSA); new compounds are similarly assessed. All compounds are also evaluated via a hemolysis assay to assess their ability to lyse red blood cells (RBC) (Nagamune et al., 2000, Toxicology in Vitro 14:139-147). The assay is conducted following a known protocol to determine the concentration of compound that causes 20% of RBCs to be lysed. […] All compounds are benchmarked against three commercial antiseptics—benzalkonium chloride, DDAC, and CHX (FIG. 1).
Hemolysis assays were performed according to a known method (Peng et al., 2011, Chem. Comm. 47:4896-4898). Defibrinated sheep blood was purchased from Hemostat Labs (DSB030). Compounds representative of each class were serially diluted in sterile PBS from stock solutions and incubated with resuspended blood cells. The OD of the final suspensions were measured directly using plate reader. TritonX (1% by volume) served as a positive control (100% lysis marker) and sterile PBS served as a negative control (0% lysis marker).

[3] = system: Enterococcus faecalis (OG1RF); experiment: Minimum inhibitory concentration (MIC); type: cell-based
Protocol: (§2) As used herein, the term “minimum inhibitory concentration (MIC)” refers to the lowest concentration of an antimicrobial agent that will inhibit the visible growth of a microorganism after overnight incubation. MIC values against bacteria, for example, the Gram-positive Staphylococcus aureus and Enterococcus faecalis and the Gram-negative Escherichia coli and Pseudomonas aeruginosa were determined by standard methods. See also P. A. Wayne, Methods for Dilution Antimicrobial Tests for Bacteria that Grow Aerobically; Approved Standard, Ninth Edition, 2012, CLSI Document M07-A9, Vol. 32 No. 2, which is incorporated by reference herein in its entirety.
as §1
as §1, with “trial.” for “trial. See Peng et al., 2011, Chem. Comm. 47:4896-4898.”

[4] = system: Escherichia coli (MC4100); experiment: Minimum inhibitory concentration (MIC); type: cell-based
Protocol: as §2, §1
as §1, with “trial.” for “trial. See Peng et al., 2011, Chem. Comm. 47:4896-4898.”

[5] = system: Pseudomonas aeruginosa (PAO1); experiment: Minimum inhibitory concentration (MIC); type: cell-based
Protocol: as §2, §1
as §1, with “trial.” for “trial. See Peng et al., 2011, Chem. Comm. 47:4896-4898.”

[6] = system: hospital-acquired methicillin-resistant Staphylococcus aureus HA-MRSA (ATCC 33591); experiment: Minimum inhibitory concentration (MIC); type: cell-based; conditions: Table 6
Protocol: as §2, §1
as §1, with “trial.” for “trial. See Peng et al., 2011, Chem. Comm. 47:4896-4898.”

[7] = system: MRSA biofilms (S. aureus USA300-0114); experiment: Minimum biofilm eradication concentration (MBEC), regrowth assay; type: cell-based, Staphylococcus aureus; conditions: Table 2; pre-formed MRSA biofilms
Protocol: (§3) A regrowth assay was used to establish the MBEC of a compound to evaluate the antibiofilm activity. See also H. Ceri, M. Olson, D. Morck, D. Storey, R. Read, A. Buret, B. Olson, Methods Enzymol. 2001, 337, 377, which is incorporated by reference herein in its entirety.
(§4) To each well of a flat-bottomed 96-well plate (Corning 3370), 8 μL of overnight bacterial culture was brought to a volume of 200 μL with fresh media (BHI for MSSA and MRSA). Plates were incubated statically for 24 hours at 37° C. to establish biofilms. After 24 hours, the wells were carefully emptied by inverting the plate and gently shaking. A pre-mixed solution of media and compound stock solution was added to each well and plates were incubated at 37° C. 16 hours after pre-established biofilms were treated with compound, the media from each well was removed, biofilms were washed three times with 200 μL PBS to remove planktonic cells, and biofilms were incubated overnight at 37° C. in 200 μL of fresh media to allow any viable cells to continue growing. The wells were then vigorously pipetted to resuspend the biofilm cells and the OD at 595 nm was measured using a plate reader (POLARstar Omega, BMG Labtech). Biofilms reaching a final OD of less than 0.1 were considered eradicated and the lowest concentration of antibiotic corresponded to the MBEC. Four replicates were completed for each concentration of compound as well as positive and negative controls.

[8] = system: Staphylococcus aureus (MSSA) biofilms; experiment: as above; type: cell-based; conditions: Table 1
Protocol: as §3, §4

[9] = system: Staphylococcus aureus (SA; MSSA SH1000); experiment: Minimum inhibitory concentration (MIC); type: cell-based
Protocol: as §2, §1
as §1, with “trial.” for “trial. See Peng et al., 2011, Chem. Comm. 47:4896-4898.”

[10] = system: community-acquired methicillin-resistant Staphylococcus aureus CA-MRSA (USA300-0114); experiment: Minimum inhibitory concentration (MIC); type: cell-based
Protocol: as §2, §1
as §1, with “trial.” for “trial. See Peng et al., 2011, Chem. Comm. 47:4896-4898.”

[11] = system: Enterococcus faecalis biofilms; experiment: Minimum biofilm eradication concentration (MBEC), regrowth assay; type: cell-based; conditions: Table 1
Excerpt: as §3

[12] = system: six bacteria (SA, HA-MRSA, CA-MRSA, EF, EC, PA); experiment: MIC against the panel of bacteria tested; type: cell-based; conditions: quinine- and nicotine-derived QACs; in words
Protocol: as §2
The complete set of MIC values against six bacteria [Staphylococcus aureus (SA), hospital-acquired methicillin-resistant SA (HA-MRSA), community-acquired methicillin-resistant SA (CA-MRSA), Enterococcus faecalis (EF), Escherichia coli (EC), and Pseudomonas aeruginosa (PA)] is presented in Table 3, wherein multiQACs are grouped with their monoQAC counterparts. The dye-based QACs with greatest inhibition of the complete range of Gram-positive and Gram-negative bacteria featured bis- or tris-quaternization, with the optimal alkyl total ranging from 17-24 carbons. For example, comparison of two biscationic series -LMG-n,1 and LMG-n,n—evaluates the effect of total alkyl chain length in retention of efficacy against the more challenging CA-MRSA and the Gram-negative strains EC and PA.
as §1

[13] = system: Pseudomonas aeruginosa; set-up: MIC against Pseudomonas aeruginosa: unit not given here; conditions: cited from earlier work
[14] = system: methicillin-resistant Staphyloccocus aureus (MRSA); conditions: at 350 μm, cited from earlier work
[15] = system: CA-MRSA strain; experiment: Reactivation assay (sub-MIC co-dosing); type: cell-based, Staphylococcus aureus; conditions: sub-MIC concentrations of TET-14,0,0, varying concentrations of triscationic variant
Excerpt: It was hypothesized that by using a reactivation assay (essentially the inverse of a potentiation assay), the role QacR plays in monoQAC resistance could be better understood. […] Other possible hypotheses include that QacR may be activated by our monoQACs but that QacA cannot efflux the trisQACs or that the resistance mechanism implicated for TET-14,0,0 may be orthogonal to the Qac system.

C=CC1C[N+]2(CCCCCCCCCCCCCCCCCC)CCC1C[C@H]2[C@@H](O)c1ccnc2ccc(OC)cc12.[Br-] (stereo partly shown) [Q-18,0]
increase in MIC of MRSA as compared to MSSA [1]: 32 fold

benzalkonium chloride [reference compound]
Lysis20 [2]: 63 µM
TI MRSA [2]: 2
TI SA [2]: 8
MIC v EF ([3]; Table 1): 8 µM
MIC EF ([3]; Table 6): 8 µM
MIC v EC ([4]; Table 1): 32 µM
MIC EC ([4]; Table 6): 32 µM
MIC v PA ([5]; Table 1): 63 µM
MIC PA ([5]; Table 6): 63 µM
MIC HA-MRSA [6]: 32 µM
MBEC v MRSA [7]: >200 µM
MBEC v SA [8]: 200 µM
MIC v SA ([9]; Table 1): 8 µM
MIC v SA ([9]; Table 2, non-resistant S. aureus strain (SH1000)): 8 µM
MIC SA ([9]; Table 6): 8 µM
MIC v MRSA ([10]; Table 2, qac-bearing MRSA strain USA300-0114): 32 µM
MIC CA-MRSA ([10]; Table 6): 8 µM
MBEC v EF [11]: 200 µM

C=CC1C[N+]2(CCCCCCCCCCCCCCCCCC)CCC1C[C@H]2[C@@H](O)c1cc[n+](C)c2ccc(OC)cc12.[Br-].[I-] (stereo partly shown) [Q-18,1]
susceptibility to QAC/MRSA resistance [1]: unaffected by QAC resistance
antimicrobial activity [12]: single-digit micromolar activity

C=CC1C[N+]2(CCCCCCCCCCCCCCCC)CCC1C[C@H]2[C@@H](O)c1cc[n+](C)c2ccc(OC)cc12.[Br-].[I-] (stereo partly shown) [Q-16,1]
susceptibility to QAC/MRSA resistance [1]: unaffected by QAC resistance
antimicrobial activity [12]: single-digit micromolar activity

COc1ccc2cc3[n+](cc2c1OC)CCc1cc2c(cc1-3)OCO2 [Berberine, berberine]
activity against P. aeruginosa ([13]; in words, literature): micromolar activity

Latifolian A
inhibition of MRSA [14]: 55%
MIC against Pseudomonas aeruginosa ([13]; Martin et al., 2011): 35

CCCCCCCCCCCCCC[N+](CC)(CC)c1ccc(N(c2ccc([N+](C)(CC)CC)cc2)c2ccc([N+](C)(CC)CC)cc2)cc1 [TET-14,1,1]
modification of MIC on co-dosing with sub-MIC TET-14,0,0 [15]: did not result in any significant modification

COc1cc2c(cc1O)[C@@H](Cc1ccc(O)cc1)[N+](C)(C)CC2 [magnocuraine, magnocurarine]
effectiveness against MRSA ([14]; in words): no effectiveness
